Assay results taken from ChEMBL document CHEMBL1201862, “PubChem BioAssay data set” (2004).
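Compound exposure: 48 hours, 5 concentrations, 96-well plates. Abbreviation: GI50, concentration required for 50% inhibition of growth.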 Activity calls are given as the source filed them. Cut-off read from the data, not from the text of the source: active = GI50 up to about 1.1 µM and inactive = higher.

What was measured:
Experiment in all cases: inhibition of tumour cell growth, NCI panel, 48 h
[1] = tested on: 786-0
[2] = tested on: A498
[3] = tested on: A549
[4] = tested on: ACHN
[5] = tested on: CCRF-CEM
[6] = tested on: LOX IMVI
[7] = tested on: MOLT-4
[8] = tested on: NCI-H226
[9] = tested on: NCI-H23
[10] = tested on: NCI/ADR-RES
[11] = tested on: OVCAR-8
[12] = tested on: PC-3
[13] = tested on: SK-MEL-5
[14] = tested on: SK-OV-3
[15] = tested on: SNB-19
[16] = tested on: SW-620
[17] = tested on: T47D
[18] = tested on: UACC-257
[19] = tested on: UACC-62
[20] = tested on: HOP-62

Measured: GI50

C[C@@H]1CC[C@@]2(C)C(C(=O)O)=CCCC2[C@@]1(C)CC(=O)c1ccoc1 (some centres undefined)
inactive: [1] > 25 µM | [2] > 25 µM | [3] > 25 µM | [4] > 25 µM | [5] > 25 µM | [6] > 25 µM | [7] > 25 µM | [8] > 25 µM | [9] > 25 µM | [10] > 25 µM | [11] > 25 µM | [12] > 25 µM | [13] > 25 µM | [14] > 25 µM | [15] > 25 µM | [16] > 25 µM | [17] > 25 µM | [18] > 25 µM | [19] > 25 µM

Fc1cc2nc3n(c2cc1F)C(c1c(Cl)cccc1Cl)SC3 (centres undefined)
inactive: [1] 15 µM | [2] 20.1 µM | [3] 14.9 µM | [4] 17.5 µM | [20] 16 µM | [6] 16.3 µM | [7] 24.4 µM | [8] 24.7 µM | [9] 16.6 µM | [10] 16.1 µM | [11] 16 µM | [12] 16.3 µM | [13] 7.82 µM | [14] 16.5 µM | [15] 14 µM | [16] 18 µM | [17] 14.3 µM | [18] 13.6 µM | [19] 12.6 µM

N#CCCN(CCC#N)c1ccc(/C=C2\N=C(c3ccccc3)N(NC(=O)c3ccncc3)C2=O)cc1
inactive: [1] > 100 µM | [2] > 100 µM | [3] > 100 µM | [4] > 100 µM | [20] > 100 µM | [6] > 100 µM | [7] > 100 µM | [8] > 100 µM | [10] > 100 µM | [11] > 100 µM | [12] > 100 µM | [13] > 100 µM | [14] > 100 µM | [15] > 100 µM | [16] > 100 µM | [17] > 100 µM | [18] > 100 µM | [19] > 100 µM

C=CCOc1cc(NC(=S)c2ccoc2C)ccc1OC
inactive: [1] > 100 µM | [2] > 100 µM | [3] > 100 µM | [4] > 100 µM | [5] > 100 µM | [6] > 100 µM | [7] > 100 µM | [8] > 100 µM | [9] > 100 µM | [10] > 100 µM | [11] > 100 µM | [12] > 100 µM | [13] > 100 µM | [14] > 100 µM | [15] > 100 µM | [16] > 100 µM | [17] > 100 µM | [18] > 100 µM | [19] > 100 µM

COc1cccc(CSCC(=O)O)c1
inactive: [1] > 100 µM | [2] > 100 µM | [3] > 100 µM | [4] > 100 µM | [20] > 100 µM | [6] > 100 µM | [8] > 100 µM | [9] > 100 µM | [10] > 100 µM | [11] > 100 µM | [12] > 100 µM | [13] > 100 µM | [14] > 100 µM | [15] > 100 µM | [16] > 100 µM | [17] > 100 µM | [18] > 100 µM | [19] > 100 µM

O=C1[C@H](O)[C@@H]2C(O)O[C@H]3[C@@H]2N1C[C@H]3[Si](c1ccccc1)(c1ccccc1)c1ccccc1 (some centres undefined)
inactive: [1] > 100 µM | [2] > 100 µM | [3] > 100 µM | [4] > 100 µM | [20] > 100 µM | [6] > 100 µM | [7] > 100 µM | [8] > 100 µM | [9] > 100 µM | [10] > 100 µM | [11] > 100 µM | [12] > 100 µM | [13] > 100 µM | [14] > 100 µM | [15] > 100 µM | [16] > 100 µM | [17] 29.1 µM | [18] > 100 µM | [19] > 100 µM

COC(=O)CCCc1ccc2c(c1)CC1(C2)Cc2cc3c(cc2C1)CCCC3
inactive: [1] 43.9 µM | [2] 41.9 µM | [3] 22.1 µM | [4] 42.7 µM | [20] 34.8 µM | [6] 30.3 µM | [7] 11.6 µM | [8] 38.1 µM | [9] 61.9 µM | [10] 47.6 µM | [11] 44.5 µM | [12] 36.8 µM | [13] 19.2 µM | [14] > 100 µM | [17] 50.7 µM | [18] 33.8 µM | [19] 21.1 µM

CCOC(=O)Nc1cc2ccccc2c(/N=N/c2ccccc2)c1O
inactive: [1] 34.8 µM | [2] > 100 µM | [3] > 100 µM | [4] > 100 µM | [5] > 100 µM | [20] 27.9 µM | [7] > 100 µM | [8] > 100 µM | [9] > 100 µM | [10] > 100 µM | [11] 37.2 µM | [12] > 100 µM | [13] > 100 µM | [14] 17.2 µM | [15] 84.1 µM | [16] > 100 µM | [17] 91.4 µM | [18] > 100 µM | [19] > 100 µM

Cc1ccc(Nc2[nH]c(=O)[nH]c(=O)c2C)cc1Cl
inactive: [1] > 100 µM | [2] > 100 µM | [3] > 100 µM | [4] > 100 µM | [20] > 100 µM | [6] > 100 µM | [8] > 100 µM | [9] > 100 µM | [10] > 100 µM | [11] > 100 µM | [12] 67.9 µM | [13] 92 µM | [14] > 100 µM | [15] > 100 µM | [16] > 100 µM | [17] > 100 µM | [18] > 100 µM | [19] 59.3 µM

COc1cccc(CCNc2c(C#N)c3n(c4ccccc4[n+]3C)c3ncccc23)c1
inactive: [1] 1.76 µM | [2] 20.9 µM | [3] 1.82 µM | [4] 16.7 µM | [20] 17.5 µM | [6] 1.74 µM | [7] 2.55 µM | [8] 20.9 µM | [9] 20.3 µM | [10] 6.93 µM | [11] 1.7 µM | [12] 14.4 µM | [13] 14.6 µM | [14] 20.3 µM | [15] 5.9 µM | [16] 2.47 µM | [17] 6.59 µM | [18] 21.9 µM | [19] 20.8 µM

CCC(C(=O)C(=O)OC)P1(=O)OC(C)(C)CN1C(C)(C)C (centres undefined)
inactive: [1] > 100 µM | [2] 20.5 µM | [3] > 100 µM | [4] > 100 µM | [20] > 100 µM | [6] > 100 µM | [7] > 100 µM | [8] > 100 µM | [9] > 100 µM | [10] > 100 µM | [11] > 100 µM | [12] > 100 µM | [13] > 100 µM | [14] > 100 µM | [15] > 100 µM | [16] > 100 µM | [17] > 100 µM | [18] > 100 µM | [19] 22.6 µM
